Reference: patent US8883827B2, “Azole derivatives as WTN pathway inhibitors” (Oslo University Hospital HF, priority 2009, dated 2014)
Where “and” joins values, the source holds several entries; their conditions need not be identical. Equal entries are not always repeated.

Assays:
[1] = tested on: Wnt signaling pathway in SW480 cells; test: ST-d1EGFP reporter in SW480 cells (flow cytometry); assay type: cell-based; conditions: 25 µM compound, 72 h
Procedure: 3) the SW480 colorectal cell line, which has an aberrant Wnt activity caused by spontaneous mutations in the APC locus, transfected with the construct ST-d1EGFP. In this cell line, d1EGFP reporter is activated without using Wnt-3a CM, i.e. the cell line has permanently “switched on” Wnt signaling pathway.
100000 ST-d1EGFP SW480 and SW480 CMV-d1EGFP (Clontech) SW480 cells were plated on 12-well plates and 1, 10 or 25 μM of compound No. 1 (or 0.01%, 0.1% or 0.25% DMSO—controls) was added to the cells the following day. After a 72 hour incubation, samples were trypsinized and analysed for d1EGFP expression on a PAS-PPCS flowcytometer and cell sorter (Partec).

DLD-1 cells = test: Real-time RT-PCR of Wnt target genes; assay type: cell-based; conditions: 10 (or 25) M as printed, 72 h, relative to GAPDH
Procedure: (§1) A real-time RT-PCR analysis was employed to confirm specific inhibition of expressed Wnt target genes. […] After 24 hours, solutions containing compound No. 1 were added at 10 or 25 μm final concentrations. Media containing the test compound were changed daily for 3 days. […] Real Time RT-PCR (SYBR Green PCR Mastermix, Stratagene) was performed using the following primers on a Mx3000P® QPCR System real-time thermal cycler (Stratagene): Results were calculated as the ratio of expression of target gene to a control gene (GAPDH).

SW480 cells = test: Real-time RT-PCR of Wnt target genes; assay type: cell-based; conditions: 10 (or 25) M as printed, 72 h, relative to GAPDH
Procedure: as §1

Apc^Min mice = test: Tumour growth in Apc^Min mice; assay type: in vivo
Procedure: Cages containing three C57BL/6 females were crossed with one C57BL/6J-Apc^Min male. The mice were fed with 2018SX Teklad Global 18% Protein Extruded Rodent Diet (Harlan™). 5-7 day old pups were randomized and divided into two treatment groups; the test group was treated with compound (1) and the control group treated with control vehicle (1% Tween®80—Sigma). Test solutions were administered daily by subcutaneous injection into the back of the neck (10 μl solution per gram of animal weight, solution 15 mg/ml compound). Two day injection intermissions followed after every fifth injection day. At the age of 21 days, mice were genotyped and Apc^Min animals were sorted into a males and females. At the same time, subcutaneous injection of the solutions was substituted by oral administration. For oral application, compound (1) was dissolved in DMSO to […]. DMSO alone was used as a vehicle control (5 μl solution per gram of animal weight, solution 30 mg/ml). Administration was terminated at the age of 9 weeks and animals euthanased. The small intestine and colon of each animal was dissected, fixed in 10% PFA and stained with 1% methylene blue. Intestines were divided into anonymous and coded samples before manual analysis by microscopy. The frequency, distribution and size of the tumors were quantified. The mice were weighted twice a week throughout the experiment. All animal experiments were approved by local ethics authorities at Forsøksdyrutvalget, Oslo, Norway, and were carried out following accepted ethical standards. […] For each statistical comparison, a Shapiro-Wilk normality test was performed along with a Students t-test if passed (P>0.05). When normality could not be achieved in the Shapiro-Wilk test, a Mann-Whitney rank sum test was used instead of Students t-test. The α-level was set to 0.05 and a difference with P<0.05 was considered to be statistically significant. Sample size (n), median, range, maximum, minimum, mean, standard deviation, standard error, and confidence intervals (C.I. of mean) are listed.

[2] = tested on: panel of phosphatases and kinases; test: KinaseProfiler phosphatase and kinase panel (whole); assay type: biochemical; conditions: 10 μM compound
LMPTP-B(h) = target: T1, LMPTP-B(h) (Homo sapiens, UniProt P24666); test: Phosphatase screen; assay type: biochemical; conditions: 0.1% DMSO control = 100%
T1 construct: purchased Millipore (KinaseProfiler service)
T1 sequence (P24666 1-158 isoform P24666-2): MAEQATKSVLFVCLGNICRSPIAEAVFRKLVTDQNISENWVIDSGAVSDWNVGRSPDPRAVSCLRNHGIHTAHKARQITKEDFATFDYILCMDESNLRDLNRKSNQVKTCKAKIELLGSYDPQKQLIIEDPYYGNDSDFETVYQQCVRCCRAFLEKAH

SHP-1(h) = target: T2, SHP-1(h) (Homo sapiens, UniProt P29350); test: Phosphatase screen; assay type: biochemical; conditions: 0.1% DMSO control = 100%
T2 construct: purchased Millipore (KinaseProfiler service)

AMPKα1(h) = target: T3, AMPKα1(h) (Homo sapiens, UniProt Q13131); test: Kinase screen; assay type: biochemical; conditions: 0.1% DMSO control = 100%
T3 construct: purchased Millipore (KinaseProfiler service)

CaMKI(h) = target: T4, CaMKI(h) (Homo sapiens, UniProt Q14012); test: Kinase screen; assay type: biochemical; conditions: 0.1% DMSO control = 100%
T4 construct: purchased Millipore (KinaseProfiler service)

CDK7/cyclinH/MAT1(h) = target: T5, CDK7/cyclinH/MAT1(h) (Homo sapiens, UniProt P50613); test: Kinase screen; assay type: biochemical; conditions: 0.1% DMSO control = 100%
T5 construct: purchased Millipore (KinaseProfiler service)
T5 sequence (P50613 whole entry): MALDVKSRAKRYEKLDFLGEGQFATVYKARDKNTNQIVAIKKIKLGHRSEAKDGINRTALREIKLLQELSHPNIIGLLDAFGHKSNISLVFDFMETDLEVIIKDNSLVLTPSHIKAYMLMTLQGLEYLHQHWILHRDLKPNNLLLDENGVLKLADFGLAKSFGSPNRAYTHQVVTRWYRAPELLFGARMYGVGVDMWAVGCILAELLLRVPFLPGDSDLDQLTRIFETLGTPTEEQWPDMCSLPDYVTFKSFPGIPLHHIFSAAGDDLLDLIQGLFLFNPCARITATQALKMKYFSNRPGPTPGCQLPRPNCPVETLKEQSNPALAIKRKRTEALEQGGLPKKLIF
T5 sequence (P51946 whole entry partner): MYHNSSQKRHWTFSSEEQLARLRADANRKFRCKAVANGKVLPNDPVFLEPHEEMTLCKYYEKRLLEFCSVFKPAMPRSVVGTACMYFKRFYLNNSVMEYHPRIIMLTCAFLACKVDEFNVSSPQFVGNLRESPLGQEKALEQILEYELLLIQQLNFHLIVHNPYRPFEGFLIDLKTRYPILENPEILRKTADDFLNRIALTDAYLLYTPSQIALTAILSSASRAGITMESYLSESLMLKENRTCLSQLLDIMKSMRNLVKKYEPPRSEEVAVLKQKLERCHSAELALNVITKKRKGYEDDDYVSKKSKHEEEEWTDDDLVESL
T5 sequence (P51948 whole entry partner): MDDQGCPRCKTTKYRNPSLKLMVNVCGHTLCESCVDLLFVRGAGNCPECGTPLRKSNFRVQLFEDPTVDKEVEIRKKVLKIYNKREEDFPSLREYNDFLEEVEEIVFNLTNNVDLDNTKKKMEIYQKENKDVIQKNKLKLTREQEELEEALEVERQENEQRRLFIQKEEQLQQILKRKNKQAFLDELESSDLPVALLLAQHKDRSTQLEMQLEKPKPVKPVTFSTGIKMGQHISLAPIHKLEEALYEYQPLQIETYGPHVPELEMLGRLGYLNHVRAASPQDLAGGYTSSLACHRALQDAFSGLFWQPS

cKit(h) = target: T6, cKit(h) (Homo sapiens, UniProt P10721); test: Kinase screen; assay type: biochemical; conditions: 0.1% DMSO control = 100%
T6 construct: purchased Millipore (KinaseProfiler service)

EphA5(h) = target: T7, EphA5(h) (Homo sapiens, UniProt P54756); test: Kinase screen; assay type: biochemical; conditions: 0.1% DMSO control = 100%
T7 construct: purchased Millipore (KinaseProfiler service)
T7 sequence (P54756 25-1037): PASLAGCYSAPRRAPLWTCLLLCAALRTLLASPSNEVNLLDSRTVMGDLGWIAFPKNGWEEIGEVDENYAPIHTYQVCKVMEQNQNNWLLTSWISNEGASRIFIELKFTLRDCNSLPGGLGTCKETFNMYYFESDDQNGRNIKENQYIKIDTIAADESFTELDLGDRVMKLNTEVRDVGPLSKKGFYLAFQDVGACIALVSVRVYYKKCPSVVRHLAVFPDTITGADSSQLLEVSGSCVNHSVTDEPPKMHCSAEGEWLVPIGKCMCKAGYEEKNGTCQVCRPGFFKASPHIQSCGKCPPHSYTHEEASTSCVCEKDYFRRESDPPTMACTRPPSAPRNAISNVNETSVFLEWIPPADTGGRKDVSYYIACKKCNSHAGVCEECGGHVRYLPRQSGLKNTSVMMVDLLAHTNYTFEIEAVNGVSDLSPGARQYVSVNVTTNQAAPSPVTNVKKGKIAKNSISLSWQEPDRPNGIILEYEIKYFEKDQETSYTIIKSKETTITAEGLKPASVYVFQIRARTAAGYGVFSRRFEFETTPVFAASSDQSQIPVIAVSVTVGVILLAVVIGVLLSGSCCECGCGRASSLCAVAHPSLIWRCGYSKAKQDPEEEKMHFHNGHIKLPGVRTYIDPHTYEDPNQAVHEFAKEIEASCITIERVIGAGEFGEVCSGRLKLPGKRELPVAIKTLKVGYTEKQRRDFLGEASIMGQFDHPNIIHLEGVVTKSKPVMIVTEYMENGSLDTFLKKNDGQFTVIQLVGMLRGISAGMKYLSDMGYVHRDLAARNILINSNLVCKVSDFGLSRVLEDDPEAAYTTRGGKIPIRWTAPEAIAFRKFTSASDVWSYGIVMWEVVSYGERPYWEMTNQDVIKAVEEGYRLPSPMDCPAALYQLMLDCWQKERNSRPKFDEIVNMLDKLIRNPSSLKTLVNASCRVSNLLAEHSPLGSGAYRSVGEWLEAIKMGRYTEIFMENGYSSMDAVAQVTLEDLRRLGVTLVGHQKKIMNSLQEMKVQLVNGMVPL

EphB4(h) = target: T8, EphB4(h) (Homo sapiens, UniProt P54760); test: Kinase screen; assay type: biochemical; conditions: 0.1% DMSO control = 100%
T8 construct: purchased Millipore (KinaseProfiler service)
T8 sequence (P54760 16-987): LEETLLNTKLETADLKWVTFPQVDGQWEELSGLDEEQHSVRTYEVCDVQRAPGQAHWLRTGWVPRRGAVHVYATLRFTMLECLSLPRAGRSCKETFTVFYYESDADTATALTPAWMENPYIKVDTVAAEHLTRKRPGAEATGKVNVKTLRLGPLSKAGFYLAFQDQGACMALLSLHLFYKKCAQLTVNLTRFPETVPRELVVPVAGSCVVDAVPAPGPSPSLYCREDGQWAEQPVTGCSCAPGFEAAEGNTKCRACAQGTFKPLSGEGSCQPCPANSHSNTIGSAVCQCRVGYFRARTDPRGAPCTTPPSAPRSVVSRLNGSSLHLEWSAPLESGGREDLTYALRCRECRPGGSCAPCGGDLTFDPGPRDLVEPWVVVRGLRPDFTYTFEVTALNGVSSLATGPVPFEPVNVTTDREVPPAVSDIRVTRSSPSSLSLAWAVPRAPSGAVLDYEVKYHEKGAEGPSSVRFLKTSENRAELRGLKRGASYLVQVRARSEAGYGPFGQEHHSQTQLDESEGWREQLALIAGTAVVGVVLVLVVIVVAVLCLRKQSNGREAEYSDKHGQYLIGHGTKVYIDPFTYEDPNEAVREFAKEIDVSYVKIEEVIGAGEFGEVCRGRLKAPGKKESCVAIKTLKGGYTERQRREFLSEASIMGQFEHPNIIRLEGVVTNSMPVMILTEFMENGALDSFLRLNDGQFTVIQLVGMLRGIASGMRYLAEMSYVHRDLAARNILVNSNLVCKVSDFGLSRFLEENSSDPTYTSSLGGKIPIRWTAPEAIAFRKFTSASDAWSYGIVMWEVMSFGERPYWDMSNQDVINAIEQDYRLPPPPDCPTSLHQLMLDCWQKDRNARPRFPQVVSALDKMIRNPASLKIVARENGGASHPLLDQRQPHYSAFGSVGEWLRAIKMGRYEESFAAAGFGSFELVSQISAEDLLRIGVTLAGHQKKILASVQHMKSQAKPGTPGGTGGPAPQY

KDR(h) = target: T9, KDR(h) (Homo sapiens, UniProt P35968); test: Kinase screen; assay type: biochemical; conditions: 0.1% DMSO control = 100%
T9 construct: purchased Millipore (KinaseProfiler service)

MKK7β(h) = target: T10, MKK7β(h) (Homo sapiens, UniProt O14733); test: Kinase screen; assay type: biochemical; conditions: 0.1% DMSO control = 100%
T10 construct: purchased Millipore (KinaseProfiler service)
T10 sequence (O14733 whole entry): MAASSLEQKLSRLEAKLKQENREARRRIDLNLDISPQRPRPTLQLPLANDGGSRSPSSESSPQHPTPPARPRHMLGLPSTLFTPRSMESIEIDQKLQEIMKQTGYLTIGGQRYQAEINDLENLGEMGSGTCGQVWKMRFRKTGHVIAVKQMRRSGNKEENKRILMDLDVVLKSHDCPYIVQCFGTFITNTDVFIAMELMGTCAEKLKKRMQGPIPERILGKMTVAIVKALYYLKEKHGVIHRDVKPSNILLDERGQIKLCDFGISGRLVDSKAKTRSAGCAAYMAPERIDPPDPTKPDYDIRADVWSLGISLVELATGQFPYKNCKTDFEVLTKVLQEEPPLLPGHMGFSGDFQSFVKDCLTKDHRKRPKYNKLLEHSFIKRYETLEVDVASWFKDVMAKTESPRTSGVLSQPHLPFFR

Pim-1(h) = target: T11, Pim-1(h) (Homo sapiens, UniProt P11309); test: Kinase screen; assay type: biochemical; conditions: 0.1% DMSO control = 100%
T11 construct: purchased Millipore (KinaseProfiler service)

PKBα(h) = target: T12, PKBα(h) (Homo sapiens, UniProt P31749); test: Kinase screen; assay type: biochemical; conditions: 0.1% DMSO control = 100%
T12 construct: purchased Millipore (KinaseProfiler service)

Plk3(h) = target: T13, Plk3(h) (Homo sapiens, UniProt Q9H4B4); test: Kinase screen; assay type: biochemical; conditions: 0.1% DMSO control = 100%
T13 construct: purchased Millipore (KinaseProfiler service)

ROCK-I(h) = target: T14, ROCK-I(h) (Homo sapiens, UniProt Q13464); test: Kinase screen; assay type: biochemical; conditions: 0.1% DMSO control = 100%
T14 construct: purchased Millipore (KinaseProfiler service)
T14 sequence (Q13464 whole entry): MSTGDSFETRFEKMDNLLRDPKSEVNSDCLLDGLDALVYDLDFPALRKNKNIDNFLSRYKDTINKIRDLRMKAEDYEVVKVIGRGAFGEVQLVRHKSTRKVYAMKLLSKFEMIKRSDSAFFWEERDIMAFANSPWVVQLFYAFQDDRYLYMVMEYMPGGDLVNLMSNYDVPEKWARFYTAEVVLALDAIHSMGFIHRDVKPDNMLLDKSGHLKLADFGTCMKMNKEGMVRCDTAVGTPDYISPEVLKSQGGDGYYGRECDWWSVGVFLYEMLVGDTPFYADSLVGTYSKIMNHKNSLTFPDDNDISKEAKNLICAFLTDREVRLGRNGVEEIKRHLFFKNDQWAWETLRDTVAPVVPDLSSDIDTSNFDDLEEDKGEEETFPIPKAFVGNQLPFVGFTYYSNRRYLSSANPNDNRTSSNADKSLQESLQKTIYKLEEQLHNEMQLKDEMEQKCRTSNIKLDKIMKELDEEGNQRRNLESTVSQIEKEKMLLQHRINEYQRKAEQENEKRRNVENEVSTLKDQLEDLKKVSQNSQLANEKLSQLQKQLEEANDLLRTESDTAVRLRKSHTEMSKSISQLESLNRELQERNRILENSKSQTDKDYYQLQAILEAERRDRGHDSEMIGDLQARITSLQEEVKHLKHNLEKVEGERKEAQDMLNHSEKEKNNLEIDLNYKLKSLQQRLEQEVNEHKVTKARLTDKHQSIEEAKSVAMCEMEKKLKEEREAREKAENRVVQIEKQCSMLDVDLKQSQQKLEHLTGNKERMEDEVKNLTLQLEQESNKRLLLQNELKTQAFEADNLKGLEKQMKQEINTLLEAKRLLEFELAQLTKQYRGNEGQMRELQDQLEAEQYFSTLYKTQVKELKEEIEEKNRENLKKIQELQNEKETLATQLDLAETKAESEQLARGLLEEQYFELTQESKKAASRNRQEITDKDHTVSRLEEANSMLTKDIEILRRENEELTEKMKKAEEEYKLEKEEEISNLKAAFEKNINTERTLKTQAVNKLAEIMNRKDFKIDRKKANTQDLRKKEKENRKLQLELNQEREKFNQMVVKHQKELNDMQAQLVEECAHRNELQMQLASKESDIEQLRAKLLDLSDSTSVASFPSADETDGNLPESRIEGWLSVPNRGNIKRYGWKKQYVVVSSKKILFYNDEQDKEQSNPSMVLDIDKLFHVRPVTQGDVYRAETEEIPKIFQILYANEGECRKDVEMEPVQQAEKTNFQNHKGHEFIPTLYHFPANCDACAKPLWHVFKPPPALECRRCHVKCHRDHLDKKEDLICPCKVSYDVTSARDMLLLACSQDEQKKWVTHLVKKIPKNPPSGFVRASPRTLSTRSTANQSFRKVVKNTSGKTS

Hh (Shh) pathway = test: Shh Light II (Gli1-Luc) reporter assay; conditions: 1 or 10 μM, 48 h, 50% Shh-CM
Description: 1) a stable reporter line for sonic hedgehog pathway, Shh Light II cells (Glil-Luc-purchased from ATCC and maintained according to suppliers recommendations);

[3] = Test female, s.c. then oral 150 mg/kg, to age 9 weeks
[4] = Test male, s.c. then oral 150 mg/kg, to age 9 weeks

## COc1ccc(-n2c(SCc3nc(-c4ccc(C)cc4)no3)nnc2-c2ccncc2)cc1 [Compound 1]
[1]
  reduction of ratio of activity of ST-d1EGFP to CMV-d1EGFP: 63.5%
DLD-1 cells
  Axin2, SP5 and NKD1 mRNA levels: dose dependent reduction
SW480 cells
  Axin2, SP5 and NKD1 mRNA levels: dose dependent reduction
Apc^Min mice; Test (male + female), control max 6
  number of colon tumours, Max: 2
Apc^Min mice; Test (male + female), control max 295
  number of small intestine tumours, Max: 53
Apc^Min mice; Test (male + female), control mean 1.783, P=0.003
  number of colon tumours, Mean: 0.42 and 0.429
Apc^Min mice; Test (male + female), control mean 74.8, P=0.036
  number of small intestine tumours, Mean: 36.1
Apc^Min mice; Test (male + female), control median 1
  number of colon tumours, Median: 0
Apc^Min mice; Test (male + female), control median 45
  number of small intestine tumours, Median: 35
Apc^Min mice; Test (male + female), control min 0
  number of colon tumours, Min: 0
Apc^Min mice; Test (male + female), control min 25
  number of small intestine tumours, Min: 19
Apc^Min mice; [3]
  number of small intestine tumours, Max: 51
  number of small intestine tumours, Mean: 33.5
  number of small intestine tumours, Median: 33
  number of small intestine tumours, Min: 19
Apc^Min mice; [4]
  number of small intestine tumours, Max: 53
  number of small intestine tumours, Mean: 39.1
  number of small intestine tumours, Median: 37
  number of small intestine tumours, Min: 22
Apc^Min mice; after the treatments, versus vehicle group
  difference in the bodyweight of male or female mice: No substantial difference
Apc^Min mice; compared to control
  tumour frequencies among size classes between 0.10 mm^2 and 3.20 mm^2, small intestine: drastically reduced
  tumours in the last two-thirds of the small intestine: substantially fewer tumours
Apc^Min mice; control 38.1 mm^2/subject
  total tumor load in the small intestine (sum of all tumors in mm^2/n): 16.4 mm^2/subject
[2]
  inhibition of kinase or phosphatase activity: No extensive inhibition
LMPTP-B(h)
  activity at 10 µM: 100%
SHP-1(h)
  activity at 10 µM: 102%
AMPKα1(h)
  activity at 10 µM: 95%
CaMKI(h)
  activity at 10 µM: 97%
CDK7/cyclinH/MAT1(h)
  activity at 10 µM: 108%
cKit(h)
  activity at 10 µM: 116%
EphA5(h)
  activity at 10 µM: 99%
EphB4(h)
  activity at 10 µM: 105%
KDR(h)
  activity at 10 µM: 104%
MKK7β(h)
  activity at 10 µM: 90%
Pim-1(h)
  activity at 10 µM: 91%
PKBα(h)
  activity at 10 µM: 79%
Plk3(h)
  activity at 10 µM: 104%
ROCK-I(h)
  activity at 10 µM: 100%
Hh (Shh) pathway
  effect against the Hh (Shh) pathway: no substantial activating or inhibitory effect
